Patent US20120263719A1, “COMPOSITIONS AND METHODS FOR TREATING ASPERGILLOSIS” (priority 2009, published 2012)
Converted amounts (≈) assume the structure as drawn. Read-outs that look alike come from different tables or passages of the source.

Tests used:
Aspergillus fumigatus = assay: In vitro antifungal activity (NCCLS M27-A; MIC/MFC, hyphal growth); format: cell-based; details: for MFC: Aspergillus fumigatus
Experimental: The antifungal activity of mAb (MPS5.44)-alliinase conjugates was determined according to the conditions of National Committee for Clinical Laboratory Standards (NCCLS) document M27-A. Resting conidia (3×10^4 conidia/well) were seeded in 96-well plates and incubated for 4 hours at 37° C. with RPMI/MOPS (100 μl). mAb-alliinase conjugate was applied in serial 2-fold dilutions, in triplicates and incubated for 30 min at 37° C., then washed four times followed by the addition of alliin (0.5 mg/ml). Hyphal growth was monitored by microscopic observation as well as by optical density (OD595), or by fluorescence of the strain CBS/DsRed (excitation at 540 nm, emission at 595 nm). The MIC of the conjugate was determined after 72 hours. The wells in which no fungal germination was detected, were scraped and plated on Sabouraud plates and the number of colonies was counted after 72 hours to determine the MFC. As a control, the antifungal activity was also determined by incubating AF as above with non-conjugated alliinase or with conjugates consisting of the non-specific mAb and alliinase.

AF-infected mice = assay: Animal survival experiment in AF-infected immunosuppressed mice (36 days); format: in vivo; details: group 8: 1 mg/kg i.t.
Experimental: Eight week-old ICR female mice of body weight 25-28 grams, were maintained under specific pathogen-free conditions and handled under protocols approved by the Weizmann Institute Animal care Committee according to International guidelines. […] Briefly, cortisone (25 mg in 200 μl PBS) was injected i.p. on days 0 and 3. Before infection, mice were anesthetized with isoflurane, and 10^7 DsRed conidia in 50 μl PBS were inoculated intra-nasally on day 0.
Animals infected as above were divided into groups (n=15):
G-1: control group (placebo) were administered i.t. with PBS (50 μl) one hour after infection, followed by (30 minutes later) the i.t. administration of PBS (25 μl); G-2: control group (placebo) were administered i.t. with PBS (50 μl) one hour after infection, followed by (30 minutes later) the i.t. administration of alliin (750 μg in 25 μl PBS). G-3: were administered i.t. with unconjugated mAb MPS 5.44 (50 nmol/50 μl) one hour after infection, followed by (30 minutes later) the i.t. administration of PBS (250); G-4: were administered i.t. with mAb-alliinase conjugate (50 nmol in 50 μl PBS) one hour after infection, followed by (30 minutes later) the i.t. administration of PBS (25 μl); […]
Statistical Analysis: Survival data were analyzed by the Kaplan-Meier method using GraphPad Prism 5 software (GraphPad Inc.). Differences in survival curves were assessed by the log-rank test.

In the case of (+)S-Allyl-cysteine sulfoxide [alliin], the “growth of Aspergillus cells treated with one component only” value (Aspergillus fumigatus; alliin without conjugate, or conjugate without alliin) is reported as “not inhibited in their growth”.

Work on `C=CCS[S+]([O-])CC=C` (stereo not drawn) [allicin, diallyl-dithiosulfinate] yielded an MFC (Aspergillus fumigatus; read-out: MFC, resting conidia) of 15 µg/mL (≈ 92.4 µM), an MFC (Aspergillus fumigatus; read-out: MFC, swollen conidia) of 7.5 µg/mL (≈ 46.2 µM) and an MFC (Aspergillus fumigatus; pure allicin, data not shown, read-out: MFC, hyphae) of 30 µg/mL (≈ 185 µM).

`C[C@@H]1[C@H](O)[C@@H](C)/C=C/C=C/C=C/C=C/C=C/C=C/C=C/[C@H](O[C@@H]2O[C@H](C)[C@@H](O)[C@H](N)[C@@H]2O)C[C@@H]2O[C@](O)(C[C@@H](O)C[C@@H](O)[C@H](O)CC[C@@H](O)C[C@@H](O)CC(=O)O[C@H]1C)C[C@H](O)[C@H]2C(=O)O` [Amphotericin B] was tested, and the MST (AF-infected mice; n=10) was 18 days and the “survival at the end of the experiment” value (AF-infected mice; n=10, 36 d) was 30%.
